According to US9409882B2, “Pyridine derivatives” (Hoffmann-La Roche Inc., priority 2012, dated 2016):

Columns and labels:
[1] = target: human Cat L (Homo sapiens (Human), UniProt P07711); experiment: Cathepsin enzyme inhibition assay (fluorogenic peptide substrate), human Cat L; format: biochemical; conditions: human Cat L 1 nM, substrate Z-Val-Val-Arg-AMC 20 μM, pH 6.5
Procedure: (§1) Cathepsin Enzyme Inhibition Assay
(§2) Enzyme activity is measured by observing the increase in fluorescence intensity caused by cleavage of a peptide substrate containing a fluorophore whose emission is quenched in the intact peptide.
(§3) Assay buffer: 100 mM potassium phosphate pH 6.5, EDTA-Na 5 mM, Triton X-100 0.001%, DTT 5 mM.
(§4) Enzymes (all at 1 nM): human and mouse Cathepsin S, Cat K, Cat B, Cat L.
(§5) Substrate (20 μM): Z-Val-Val-Arg-AMC, except for Cat K which uses Z-Leu-Arg-AMC (both from Bachem).
(§6) AMC=7-Amino-4-Methyl-Coumarin.
(§7) Excitation 360 nm, Emission 465 nm.
(§8) Enzyme is added to the substance dilutions in 96-well microtitre plates and the reaction is started with substrate. […] IC50 are calculated by standard methods.
(§9) Inhibition of human Cat S, mouse Cat S, human Cat K, human Cat B, human Cat L and mouse Cat L have been measured separately.

[2] = target: human Cathepsin S (Homo sapiens (Human), UniProt P25774); experiment: Cathepsin enzyme inhibition assay (fluorogenic peptide substrate), human Cat S; format: biochemical; conditions: human Cat S 1 nM, substrate Z-Val-Val-Arg-AMC 20 μM, pH 6.5
Procedure: as §1, §2, §3, §4, §5, §6, §7, §8, §9

Chain of human Cathepsin S (P25774 115-331): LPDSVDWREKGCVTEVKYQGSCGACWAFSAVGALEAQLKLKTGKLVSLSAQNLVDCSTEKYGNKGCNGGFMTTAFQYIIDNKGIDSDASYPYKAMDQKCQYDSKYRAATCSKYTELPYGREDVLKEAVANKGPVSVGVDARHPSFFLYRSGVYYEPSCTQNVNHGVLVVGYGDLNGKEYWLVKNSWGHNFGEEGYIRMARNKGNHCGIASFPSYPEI
Chain of human Cat L (P07711 114-333): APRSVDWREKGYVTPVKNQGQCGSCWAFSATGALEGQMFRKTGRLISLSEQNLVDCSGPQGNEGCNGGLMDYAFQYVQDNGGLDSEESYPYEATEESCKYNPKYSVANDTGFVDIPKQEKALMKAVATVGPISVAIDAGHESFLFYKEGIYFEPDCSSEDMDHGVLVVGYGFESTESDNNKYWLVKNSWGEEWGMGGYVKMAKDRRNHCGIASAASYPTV

IC50 [1] | IC50 [2] | Compound
21.1 µM | 0.0585 µM | N#CC1(NC(=O)[C@@H]2C[C@@H](S(=O)(=O)c3ccccc3-n3cncn3)CN2C(=O)C2(c3ncc(Cl)cc3F)CC2)CC1 [Example 48, (2S,4R)-1-[1-(5-Chloro-3-fluoro-pyridin-2-yl)-cyclopropanecarbonyl]-4-(2-[1,2,4]triazol-1-yl-benzenesulfonyl)-pyrrolidine-2-carboxylic acid (1-cyano-cyclopropyl)-amide]
0.0129 µM | 0.000398 µM | N#CC1(NC(=O)[C@@H]2C[C@@H](S(=O)(=O)c3ccccc3Cl)CN2C(=O)C2(c3ncc(Cl)cc3F)CC2)CC1 [Example 5, (2S,4R)-4-(2-Chloro-benzenesulfonyl)-1-[1-(5-chloro-3-fluoro-pyridin-2-yl)-cyclopropanecarbonyl]-pyrrolidine-2-carboxylic acid (1-cyano-cyclopropyl)-amide]
4.61 µM | – | Cc1cccc(S[C@@H]2C[C@@H](C(=O)NC3(C#N)CC3)N(C(=O)C3(c4ncc(Cl)cc4F)CC3)C2)n1 [Example 19, (2S,4R)-1-[1-(5-Chloro-3-fluoro-pyridin-2-yl)-cyclopropanecarbonyl]-4-(6-methyl-pyridin-2-ylsulfanyl)-pyrrolidine-2-carboxylic acid (1-cyano-cyclopropyl)-amide]
0.34 µM | 0.000492 µM | N#CC1(NC(=O)[C@@H]2C[C@@H](S(=O)(=O)c3ccccc3Cl)CN2C(=O)C2(c3ccc(Cl)cn3)CC2)CC1 [Example 2, (2S,4R)-4-(2-Chloro-benzenesulfonyl)-1-[1-(5-chloro-pyridin-2-yl)-cyclopropanecarbonyl]-pyrrolidine-2-carboxylic acid (1-cyano-cyclopropyl)-amide]
0.0119 µM | 0.000393 µM | COc1ccc(S(=O)(=O)[C@@H]2C[C@@H](C(=O)NC3(C#N)CC3)N(C(=O)C3(c4ncc(Cl)cc4F)CC3)C2)c(Cl)c1 [Example 4, (2S,4R)-1-[1-(5-Chloro-3-fluoro-pyridin-2-yl)-cyclopropanecarbonyl]-4-(2-chloro-4-methoxy-benzenesulfonyl)-pyrrolidine-2-carboxylic acid (1-cyano-cyclopropyl)-amide]
5.06 µM | 0.393 µM | N#CC1(NC(=O)[C@@H]2C[C@@H](Sc3ccc(C(F)(F)F)cn3)CN2C(=O)C2(c3ncc(Cl)cc3F)CC2)CC1 [Example 20, (2S,4R)-1-[1-(5-Chloro-3-fluoro-pyridin-2-yl)-cyclopropanecarbonyl]-4-(5-trifluoromethyl-pyridin-2-ylsulfanyl)-pyrrolidine-2-carboxylic acid (1-cyano-cyclopropyl)-amide]
13.2 µM | 0.00321 µM | N#CC1(NC(=O)[C@@H]2C[C@@H](S(=O)(=O)c3ncccc3C(F)(F)F)CN2C(=O)C2(c3ncc(Cl)cc3F)CC2)CC1 [Example 25, (2S,4R)-1-[1-(5-Chloro-3-fluoro-pyridin-2-yl)-cyclopropanecarbonyl]-4-(3-trifluoromethyl-pyridine-2-sulfonyl)-pyrrolidine-2-carboxylic acid (1-cyano-cyclopropyl)-amide]
2.12 µM | – | N#CC1(NC(=O)[C@@H]2C[C@@H](S(=O)(=O)c3ncccc3Cl)CN2C(=O)C2(c3ncc(Cl)cc3F)CC2)CC1 [Example 14, (2S,4R)-1-[1-(5-Chloro-3-fluoro-pyridin-2-yl)-cyclopropanecarbonyl]-4-(3-chloropyridine-2-sulfonyl)-pyrrolidine-2-carboxylic acid (1-cyano-cyclopropyl)-amide]
0.0287 µM | 0.000375 µM | Cn1cc(-c2ccc(S(=O)(=O)[C@@H]3C[C@@H](C(=O)NC4(C#N)CC4)N(C(=O)C4(c5ncc(Cl)cc5F)CC4)C3)c(Cl)c2)cn1 [Example 33, (2S,4R)-1-[1-(5-Chloro-3-fluoro-pyridin-2-yl)-cyclopropanecarbonyl]-4-[2-chloro-4-(1-methyl-1H-pyrazol-4-yl)-benzenesulfonyl]-pyrrolidine-2-carboxylic acid (1-cyano-cyclopropyl)-amide]
0.416 µM | 0.0118 µM | N#CC1(NC(=O)[C@@H]2C[C@@H](Sc3cccc(-c4ccc(F)cc4)c3)CN2C(=O)C2(c3ncc(Cl)cc3F)CC2)CC1 [Example 9, (2S,4R)-1-[1-(5-Chloro-3-fluoro-pyridin-2-yl)-cyclopropanecarbonyl]-4-(4′-fluorobiphenyl-3-ylsulfanyl)-pyrrolidine-2-carboxylic acid (1-cyano-cyclopropyl)-amide]
35.2 µM | 0.00427 µM | N#CC1(NC(=O)[C@@H]2C[C@@H](S(=O)(=O)c3ccccc3-n3ccnn3)CN2C(=O)C2(c3ncc(Cl)cc3F)CC2)CC1 [Example 47, (2S,4R)-1-[1-(5-Chloro-3-fluoro-pyridin-2-yl)-cyclopropanecarbonyl]-4-(2-[1,2,3]triazol-1-yl-benzenesulfonyl)-pyrrolidine-2-carboxylic acid (1-cyano-cyclopropyl)-amide]
17.4 µM | 0.159 µM | N#CC1(NC(=O)[C@@H]2C[C@@H](S(=O)(=O)c3ccccc3-n3cccn3)CN2C(=O)C2(c3ncc(Cl)cc3F)CC2)CC1 [Example 46]
10 µM | 0.275 µM | N#CC1(NC(=O)[C@@H]2C[C@@H](Sc3ncccc3C(F)(F)F)CN2C(=O)C2(c3ncc(Cl)cc3F)CC2)CC1 [Example 21, (2S,4R)-1-[1-(5-Chloro-3-fluoro-pyridin-2-yl)-cyclopropanecarbonyl]-4-(3-trifluoromethyl-pyridin-2-ylsulfanyl)-pyrrolidine-2-carboxylic acid (1-cyano-cyclopropyl)-amide]
0.0255 µM | 0.000734 µM | COc1ccc(S(=O)(=O)[C@@H]2C[C@@H](C(=O)NC3(C#N)CC3)N(C(=O)C3(c4ncc(Br)cc4F)CC3)C2)c(Cl)c1 [Example 7, (2S,4R)-1-[1-(5-Bromo-3-fluoro-pyridin-2-yl)-cyclopropanecarbonyl]-4-(2-chloro-4-methoxy-benzenesulfonyl)-pyrrolidine-2-carboxylic acid (1-cyano-cyclopropyl)-amide]
0.09 µM | 0.0016 µM | C[C@H](Oc1ccc(S(=O)(=O)[C@@H]2C[C@@H](C(=O)NC3(C#N)CC3)N(C(=O)C3(c4ncc(Cl)cc4F)CC3)C2)c(Cl)c1)C(F)(F)F [Example 27, (2S,4R)-1-(1-(5-chloro-3-fluoropyridin-2-yl)cyclopropanecarbonyl)-4-(2-chloro-4-((S)-1,1,1-trifluoropropan-2-yloxy)phenylsulfonyl)-N-(1-cyanocyclopropyl)pyrrolidine-2-carboxamide]
0.0524 µM | – | N#CC1(NC(=O)[C@@H]2C[C@@H](Sc3cc(C(F)(F)F)ccc3Cl)CN2C(=O)C2(c3ncc(Cl)cc3F)CC2)CC1 [Example 26, (2S,4R)-1-[1-(5-Chloro-3-fluoro-pyridin-2-yl)-cyclopropanecarbonyl]-4-(2-chloro-5-trifluoromethyl-phenylsulfanyl)-pyrrolidine-2-carboxylic acid (1-cyano-cyclopropyl)-amide]
0.0616 µM | 0.000505 µM | Cc1cc(-c2ccc(S(=O)(=O)[C@@H]3C[C@@H](C(=O)NC4(C#N)CC4)N(C(=O)C4(c5ncc(Cl)cc5F)CC4)C3)c(Cl)c2)ccn1 [Example 31, (2S,4R)-1-(1-(5-chloro-3-fluoropyridin-2-yl)cyclopropanecarbonyl)-4-(2-chloro-4-(2-methylpyridin-4-yl)phenylsulfonyl)-N-(1-cyanocyclopropyl)pyrrolidine-2-carboxamide]
0.0436 µM | 0.000696 µM | Cn1cc(-c2ccc(S(=O)(=O)[C@@H]3C[C@@H](C(=O)NC4(C#N)CC4)N(C(=O)C4(c5ncc(C(F)(F)F)cc5F)CC4)C3)c(Cl)c2)cn1 [Example 39, (2S,4R)-4-[2-Chloro-4-(1-methyl-1H-pyrazol-4-yl)-benzenesulfonyl]-1-[1-(3-fluoro-5-trifluoromethyl-pyridin-2-yl)-cyclopropanecarbonyl]-pyrrolidine-2-carboxylic acid (1-cyano-cyclopropyl)-amide]
– | 0.964 µM | N#CC1(NC(=O)[C@@H]2C[C@@H](Sc3ncccc3Cl)CN2C(=O)C2(c3ncc(Cl)cc3F)CC2)CC1 [Example 10, (2S,4R)-1-[1-(5-Chloro-3-fluoro-pyridin-2-yl)-cyclopropanecarbonyl]-4-(3-chloro-pyridin-2-ylsulfanyl)-pyrrolidine-2-carboxylic acid (1-cyano-cyclopropyl)-amide]
0.247 µM | – | N#CC1(NC(=O)[C@@H]2C[C@@H](S(=O)(=O)c3cccc(-c4ccc(F)cc4)c3)CN2C(=O)C2(c3ncc(Cl)cc3F)CC2)CC1 [Example 13, (2S,4R)-1-[1-(5-Chloro-3-fluoro-pyridin-2-yl)-cyclopropanecarbonyl]-4-(4′-fluorobiphenyl-3-sulfonyl)-pyrrolidine-2-carboxylic acid (1-cyano-cyclopropyl)-amide]
– | 0.000703 µM | Cn1cc(-c2ccc(S(=O)(=O)[C@@H]3C[C@@H](C(=O)NC4(C#N)CC4)N(C(=O)C4(c5ncc(Cl)cc5Cl)CC4)C3)c(Cl)c2)cn1 [Example 40, (2S,4R)-4-[2-Chloro-4-(1-methyl-1H-pyrazol-4-yl)-benzenesulfonyl]-1-[1-(3,5-dichloro-pyridin-2-yl)-cyclopropanecarbonyl]-pyrrolidine-2-carboxylic acid (1-cyano-cyclopropyl)-amide]
